Laboratory results published in patent EP1247803A2, “Indolinone compounds suitable for modulation of protein kinases” (Sugen, Inc., priority 1996, dated 1998).

What was measured:
MET = MET biochemical kinase assay; set-up: species or system human; concentration or dose not given beside the values
Method in brief: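 Colorimetric signal from an HRP-linked anti-phosphotyrosine antibody with TMB measures phosphate incorporated into immobilised MET. The receptor is pulled from lysates by a polyclonal antibody against its cytoplasmic domain, then reacts in ATP- and metal-containing buffer with test compound.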

FLK-1 receptor = biological target: T1, FLK-1 receptor (Mus musculus, UniProt P35918); assay: FLK-1 ELISA (kinase activity of the FLK-1 receptor in FLK-1/NIH3T3 cells, VEGF stimulated); type: cell-based
T1 construct: expressed in transfected cells; host or cells: NIH3T3 C7#3
T1 sequence (P35918 20-1345): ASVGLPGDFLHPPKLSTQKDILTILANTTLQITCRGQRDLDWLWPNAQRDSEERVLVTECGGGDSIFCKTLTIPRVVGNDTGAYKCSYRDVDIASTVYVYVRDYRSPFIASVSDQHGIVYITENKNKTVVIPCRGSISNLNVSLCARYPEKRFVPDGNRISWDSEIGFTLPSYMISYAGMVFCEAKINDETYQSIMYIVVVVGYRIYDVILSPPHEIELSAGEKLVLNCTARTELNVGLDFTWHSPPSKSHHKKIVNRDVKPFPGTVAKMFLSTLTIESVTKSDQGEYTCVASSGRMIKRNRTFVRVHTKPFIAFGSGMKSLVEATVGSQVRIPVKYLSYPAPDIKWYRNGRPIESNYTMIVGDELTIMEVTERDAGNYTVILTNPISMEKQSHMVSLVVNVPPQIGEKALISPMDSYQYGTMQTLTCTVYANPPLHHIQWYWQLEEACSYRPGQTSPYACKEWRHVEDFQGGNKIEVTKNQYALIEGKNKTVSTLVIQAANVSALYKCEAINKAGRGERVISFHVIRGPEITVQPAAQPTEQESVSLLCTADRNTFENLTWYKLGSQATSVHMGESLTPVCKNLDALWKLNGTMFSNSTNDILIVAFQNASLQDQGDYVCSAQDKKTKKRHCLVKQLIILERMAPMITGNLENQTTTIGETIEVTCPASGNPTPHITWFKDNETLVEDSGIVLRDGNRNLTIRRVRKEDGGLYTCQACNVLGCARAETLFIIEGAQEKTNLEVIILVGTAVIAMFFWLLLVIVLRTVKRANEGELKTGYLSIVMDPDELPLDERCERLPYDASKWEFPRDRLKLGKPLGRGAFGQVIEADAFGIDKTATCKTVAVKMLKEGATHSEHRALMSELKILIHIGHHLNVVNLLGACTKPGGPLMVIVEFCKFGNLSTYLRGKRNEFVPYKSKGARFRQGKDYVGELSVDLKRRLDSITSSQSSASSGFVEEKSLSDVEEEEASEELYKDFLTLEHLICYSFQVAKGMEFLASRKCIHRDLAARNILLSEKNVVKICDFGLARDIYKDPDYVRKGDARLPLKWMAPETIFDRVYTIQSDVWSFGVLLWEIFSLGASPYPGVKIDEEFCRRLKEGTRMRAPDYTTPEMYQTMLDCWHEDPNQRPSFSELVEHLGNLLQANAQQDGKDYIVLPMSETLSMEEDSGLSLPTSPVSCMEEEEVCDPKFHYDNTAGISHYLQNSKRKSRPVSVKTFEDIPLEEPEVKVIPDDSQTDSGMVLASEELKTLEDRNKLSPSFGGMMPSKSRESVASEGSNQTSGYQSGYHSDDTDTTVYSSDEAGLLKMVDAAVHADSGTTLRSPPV
Method in brief: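 An ELISA using affinity-purified rabbit anti-FLK-1 antiserum on anti-rabbit IgG-coated plates measured VEGF-stimulated FLK-1 kinase activity. NIH3T3 C7#3 cells carrying FLK-1 were serum-starved (0.1% FBS) overnight, then exposed to compound (final 1:200 dilution, 0.5% DMSO) for two hours at 37 °C.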

Compound | Met Kinase % Inhibition (MET) | Fik Kinase %Inhibition (FLK-1 receptor)
CCOc1ccccc1C=C1C(=O)Nc2ccc(I)cc21 [10717/B02] | 87.5% | 5.0%
O=C1Nc2ccc(I)cc2C1=Cc1cccs1 [10717/B03] | 90.5% | -8.8%
Cn1cccc1C=C1C(=O)Nc2ccc(I)cc21 [10717/B04] | 70.0% | -18.3%
O=C1Nc2ccc(I)cc2C1=Cc1ccc(F)cc1 [10717/B05] | 87.4% | 1.0%
O=C1Nc2ccc(I)cc2C1=Cc1c[nH]c2ccccc12 [10717/B06] | 89.5% | 5.4%
CCOC(=O)c1c(C)[nH]c(C=C2C(=O)Nc3ccc(S(=O)(=O)N4CCOCC4)cc32)c1C [10718/F02] | 66.7% | 20.1%
COc1cc(Br)c(O)c(C=C2C(=O)Nc3ccc(S(=O)(=O)N4CCOCC4)cc32)c1 [10718/F03] | 87.9% | -0.2%
O=C1Nc2ccc(S(=O)(=O)N3CCOCC3)cc2C1=Cc1ccc2ccccc2c1O [10718/F04] | 78.1% | 9.4%
CCOC(=O)CCc1c(C(=O)OCC)[nH]c(C=C2C(=O)Nc3ccc(S(=O)(=O)N4CCOCC4)cc32)c1CC(=O)OCC [10718/F05] | 53.7% | 19.5%
CCOC(=O)c1cc(C=C2C(=O)Nc3ccc(S(=O)(=O)N4CCOCC4)cc32)oc1C [10718/F06] | 42.5% | 18.3%
COC(=O)c1[nH]c(C)c(C=C2C(=O)Nc3ccc(S(=O)(=O)N4CCOCC4)cc32)c1C(=O)OC [10718/F07] | 67.9% | 16.5%
O=C1Nc2ccc(S(=O)(=O)N3CCOCC3)cc2C1=Cc1ccc(Cl)c([N+](=O)[O-])c1 [10718/F08] | 28.4% | 15.3%
Cc1c(O)ccc(C=C2C(=O)Nc3ccc(S(=O)(=O)N4CCOCC4)cc32)c1O [10718/F09] | 52.7% | -3.0%
O=C1Nc2ccc(S(=O)(=O)N3CCOCC3)cc2C1=Cc1ccco1 [10718/F10] | 23.7% | 17.9%
O=C1Nc2ccc(S(=O)(=O)N3CCOCC3)cc2C1=Cc1ccc([N+](=O)[O-])o1 [10718/F11] | 31.3% | 10.1%
CCOC(=O)c1c(C)[nH]c(C=C2C(=O)Nc3ccc(CCCl)cc32)c1C [10718/G02] | 67.7% | -2.5%
COc1cc(Br)c(O)c(C=C2C(=O)Nc3ccc(CCCl)cc32)c1 [10718/G03] | 77.9% | -4.7%
O=C1Nc2ccc(CCCl)cc2C1=Cc1ccc2ccccc2c1O [10718/G04] | 78.1% | 1.8%
CCOC(=O)CCc1c(C(=O)OCC)[nH]c(C=C2C(=O)Nc3ccc(CCCl)cc32)c1CC(=O)OCC [10718/G05] | 60.3% | 3.7%
CCOC(=O)c1cc(C=C2C(=O)Nc3ccc(CCCl)cc32)oc1C [10718/G06] | 61.0% | 9.8%

Compound | Met Kinase % Inhibition (MET) | Fik Kinase %Inhibition (FLK-1 receptor)
COC(=O)c1[nH]c(C)c(C=C2C(=O)Nc3ccc(CCCl)cc32)c1C(=O)OC [10718/G07] | 52.0% | 11.4%
O=C1Nc2ccc(CCCl)cc2C1=Cc1ccc(Cl)c([N+](=O)[O-])c1 [10718/G08] | 17.5% | 6.1%
Cc1c(O)ccc(C=C2C(=O)Nc3ccc(CCCl)cc32)c1O [10718/G09] | 27.0% | -12.8%
O=C1Nc2ccc(CCCl)cc2C1=Cc1ccco1 [10718/G10] | 10.8% | 7.1%
O=C1Nc2ccc(CCCl)cc2C1=Cc1ccc([N+](=O)[O-])o1 [10718/G11] | 3.0% | 15.6%
CCOc1ccc(C=C2C(=O)Nc3c(Br)cc(Br)cc32)cc1OC [10719/A02] | 40.9% | 21.4%
O=C1Nc2c(Br)cc(Br)cc2C1=Cc1ccc(O)c(O)c1 [10719/A03] | 84.1% | 3.9%
COc1ccc(C=C2C(=O)Nc3c(Br)cc(Br)cc32)c(OC)c1 [10719/A04] | 22.9% | 19.2%
CCc1c(C)[nH]c(C=C2C(=O)Nc3c(Br)cc(Br)cc32)c1C [10719/A05] | 39.6% | 10.0%
COc1cc(OC)c(C=C2C(=O)Nc3c(Br)cc(Br)cc32)c(OC)c1 [10719/A06] | -7.0% | 14.0%
O=C1Nc2c(Br)cc(Br)cc2C1=Cc1ccc(O)cc1 [10719/A07] | 68.1% | 21.3%
CN(C)c1ccc(C=C2C(=O)Nc3c(Br)cc(Br)cc32)cc1 [10719/A08] | 75.5% | 11.9%
O=C1Nc2c(Br)cc(Br)cc2C1=Cc1ccc(F)cc1Cl [10719/A09] | 47.0% | 12.3%
O=C1Nc2c(Br)cc(Br)cc2C1=Cc1cccc([N+](=O)[O-])c1 [10719/A10] | 13.4% | 10.9%
O=C1Nc2c(Br)cc(Br)cc2C1=Cc1ccc(F)cc1C(F)(F)F [10719/A11] | 34.9% | 7.4%
CCOc1ccc(C=C2C(=O)Nc3ccc(I)cc32)cc1OC [10719/B02] | 47.0% | 11.5%
O=C1Nc2ccc(I)cc2C1=Cc1ccc(O)c(O)c1 [10719/B03] | 85.8% | 14.2%
COc1ccc(C=C2C(=O)Nc3ccc(I)cc32)c(OC)c1 [10719/B04] | 38.4% | 24.9%
CCc1c(C)[nH]c(C=C2C(=O)Nc3ccc(I)cc32)c1C [10719/B05] | 33.6% | 17.7%
COc1cc(OC)c(C=C2C(=O)Nc3ccc(I)cc32)c(OC)c1 [10719/B06] | 22.5% | 21.3%

Compound | Met Kinase % Inhibition (MET) | Fik Kinase %Inhibition (FLK-1 receptor)
O=C1Nc2ccc(I)cc2C1=Cc1ccc(O)cc1 [10719/B07] | 52.2% | 12.5%
CN(C)c1ccc(C=C2C(=O)Nc3ccc(I)cc32)cc1 [10719/B08] | 33.2% | 4.0%
O=C1Nc2ccc(I)cc2C1=Cc1ccc(F)cc1Cl [10719/B09] | 23.5% | 11.3%
O=C1Nc2ccc(I)cc2C1=Cc1cccc([N+](=O)[O-])c1 [10719/B10] | 53.4% | 1.1%
O=C1Nc2ccc(I)cc2C1=Cc1ccc(F)cc1C(F)(F)F [10719/B11] | 36.5% | 11.2%
CCOc1ccc(C=C2C(=O)Nc3ccc(Br)c(C)c32)cc1OC [10719/C02] | 41.3% | 4.1%
Cc1c(Br)ccc2c1C(=Cc1ccc(O)c(O)c1)C(=O)N2 [10719/C03] | 69.1% | 15.3%
COc1ccc(C=C2C(=O)Nc3ccc(Br)c(C)c32)c(OC)c1 [10719/C04] | 14.7% | 59.9%
CCc1c(C)[nH]c(C=C2C(=O)Nc3ccc(Br)c(C)c32)c1C [10719/C05] | 35.5% | 25.6%
COc1cc(OC)c(C=C2C(=O)Nc3ccc(Br)c(C)c32)c(OC)c1 [10719/C06] | 18.4% | 47.7%
Cc1c(Br)ccc2c1C(=Cc1ccc(O)cc1)C(=O)N2 [10719/C07] | 7.7% | 31.2%
Cc1c(Br)ccc2c1C(=Cc1ccc(N(C)C)cc1)C(=O)N2 [10719/C08] | 57.5% | 15.0%
Cc1c(Br)ccc2c1C(=Cc1ccc(F)cc1Cl)C(=O)N2 [10719/C09] | 8.9% | 23.5%
O=C1Nc2ccc(S(=O)(=O)Nc3ccc(C(F)(F)F)cc3)cc2C1=Cc1cc(Cl)ccc1O [10734/E04] | 88.9% | 10.7%
CCN(CC)c1ccc(C=C2C(=O)Nc3ccc(S(=O)(=O)Nc4ccc(C(F)(F)F)cc4)cc32)c(O)c1 [10734/E05] | 63.6% | 10.6%
O=C1Nc2ccc(S(=O)(=O)Nc3ccc(C(F)(F)F)cc3)cc2C1=Cc1ccc([N+](=O)[O-])cc1 [10734/E06] | 50.6% | 28.4%
O=C1Nc2ccc(S(=O)(=O)Nc3ccc(C(F)(F)F)cc3)cc2C1=Cc1cc(Br)cc(Br)c1O [10734/E07] | 100.8% | 27.9%
O=C1Nc2ccc(S(=O)(=O)Nc3ccc(C(F)(F)F)cc3)cc2C1=Cc1cccc(F)c1O [10734/E08] | 89.1% | 26.6%
O=C1Nc2ccc(S(=O)(=O)Nc3ccc(C(F)(F)F)cc3)cc2C1=Cc1ccc(O)c(Br)c1 [10734/E09] | 96.2% | 8.0%
CC(C)(C)c1ccc(C=C2C(=O)Nc3ccc(S(=O)(=O)Nc4ccc(C(F)(F)F)cc4)cc32)cc1 [10734/E10] | 27.9% | 18.5%
